pIC50: −log10 of the molar value.
Molecular target: T1, human PF4 (Homo sapiens, UniProt P02776)
T1 construct: PF4 is a 70 amino acid, lysine-rich 7.8 kDa platelet-specific protein; made in house; host or cells: Escherichia coli BL21DE3 pLysS (pT7-7) and/or Drosophila S2 cells
T1 sequence (P02776 32-101): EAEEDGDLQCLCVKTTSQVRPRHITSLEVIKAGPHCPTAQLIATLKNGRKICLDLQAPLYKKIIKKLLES
Experiment: Inhibition of PF4 tetramer formation (BS3 cross-linking, SDS-PAGE)
Assay type: biochemical
Conditions: for inhibition at 1 µM: 1 μM inhibitor; for inhibition at 1 µM / inhibition at 3 µM / inhibition at 5 µM / inhibition at 10 µM: read-out: % inhibition of PF4 tetramer formation at single concentration of inhibitor; for inhibition at 3 µM: 3 μM inhibitor (column A); for inhibition at 5 µM: 5 μM inhibitor; for inhibition at 10 µM: 10 μM inhibitor (column A); for pIC50: read-out: IC50 of PF4 tetramer formation inhibition
Method in brief: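 Monomer, dimer, trimer and tetramer fractions were quantified by densitometry after reducing 12% SDS-PAGE of BS3-cross-linked (0.2 mM, 30 min, room temperature) PF4. Before cross-linking, 10 μg/ml E. coli-expressed human WT PF4 in PBS was exposed to compound for 15 min at 37° C or 60 min at room temperature; controls lacked compound.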

Structure (SMILES) | inhibition at 1 µM | inhibition at 3 µM | inhibition at 5 µM | inhibition at 10 µM | pIC50
CC(C)(C)OC(=O)N1CC[C@@H](C(=O)C2C(=O)c3ccc(S(=O)(=O)c4ccc5c(c4)C(=O)C(C(=O)[C@@H]4CCN(C(=O)OC(C)(C)C)C4)C5=O)cc3C2=O)C1 (stereo partly drawn) [Example 376, tert-butyl (3R)-3-[5-({2-[(3R)-1-[(tert-butoxy)carbonyl]pyrrolidine-3-carbonyl]-1,3-dioxo-2,3-dihydro-1H-inden-5-yl}sulfonyl)-1,3-dioxo-2,3-dihydro-1H-indene-2-carbonyl]pyrrolidine-1-carboxylate] | 22% | 62% | – | – | –
O=C(c1ccc2c(c1)C(=O)C(C(=O)CC1CCCC1)C2=O)c1ccc2c(c1)C(=O)C(C(=O)CC1CCCC1)C2=O (centres unmarked) [Example 141, 2-(2-cyclopentylacetyl)-5-[2-(2-cyclopentylacetyl)-1,3-dioxo-2,3-dihydro-1H-indene-5-carbonyl]-2,3-dihydro-1H-indene-1,3-dione] | – | – | 38% | 68% | –
CC(C)(C)OC(=O)N1CC[C@@H](C(=O)C2C(=O)c3ccc(C(=O)c4ccc5c(c4)C(=O)C(C(=O)[C@@H]4CCN(C(=O)OC(C)(C)C)C4)C5=O)cc3C2=O)C1 (stereo partly drawn) [Example 375, tert-butyl (3R)-3-(5-{2-[(3R)-1-[(tert-butoxy)carbonyl]pyrrolidine-3-carbonyl]-1,3-dioxo-2,3-dihydro-1H-indene-5-carbonyl}-1,3-dioxo-2,3-dihydro-1H-indene-2-carbonyl)pyrrolidine-1-carboxylate] | 14% | 32% | – | – | –
CC(C)C[C@@H](N)C(=O)C1C(=O)c2ccc(C(=O)c3ccc4c(c3)C(=O)C(C(=O)[C@H](N)CC(C)C)C4=O)cc2C1=O (stereo partly drawn) [Example 354, 2-[(2R)-2-amino-4-methylpentanoyl]-5-{2-[(2R)-2-amino-4-methylpentanoyl]-1,3-dioxo-2,3-dihydro-1H-indene-5-carbonyl}-2,3-dihydro-1H-indene-1,3-dione] | 26% | 32% | – | – | –
O=C(c1ccc2c(c1)C(=O)C(C(=O)[C@@H]1CCCN1C(=O)OCc1ccccc1)C2=O)c1ccc2c(c1)C(=O)C(C(=O)[C@@H]1CCCN1C(=O)OCc1ccccc1)C2=O (stereo partly drawn) [Example 125, benzyl (2S)-2-(5-{2-[(2S)-1-[(benzyloxy)carbonyl]pyrrolidine-2-carbonyl]-1,3-dioxo-2,3-dihydro-1H-indene-5-carbonyl}-1,3-dioxo-2,3-dihydro-1H-indene-2-carbonyl)pyrrolidine-1-carboxylate] | – | – | 87% | 93% | 5.92
O=C(c1ccnc(-c2ccccc2)c1)C1C(=O)c2ccc(S(=O)(=O)c3ccc4c(c3)C(=O)C(C(=O)c3ccnc(-c5ccccc5)c3)C4=O)cc2C1=O (centres unmarked) [Example 241, 5-{[1,3-dioxo-2-(2-phenylpyridine-4-carbonyl)-2,3-dihydro-1H-inden-5-yl]sulfonyl}-2-(2-phenylpyridine-4-carbonyl)-2,3-dihydro-1H-indene-1,3-dione] | 14% | 29% | – | – | –
C[C@H](NC(=O)C1C(=O)c2ccc(Oc3ccc4c(c3)C(=O)C(C(=O)N[C@@H](C)C(=O)O)C4=O)cc2C1=O)C(=O)O (stereo partly drawn) [Example 313, (2S)-2-({5-[(2-{[(1S)-1-carboxyethyl]carbamoyl}-1,3-dioxo-2,3-dihydro-1H-inden-5-yl)oxy]-1,3-dioxo-2,3-dihydro-1H-inden-2-yl}formamido) propanoic acid] | 31% | 67% | – | – | –
O=C(NC1CCCC1)C1C(=O)c2ccc(S(=O)(=O)c3ccc4c(c3)C(=O)C(C(=O)NC3CCCC3)C4=O)cc2C1=O (centres unmarked) [Example 294, N-cyclopentyl-5-{[2-(cyclopentylcarbamoyl)-1,3-dioxo-2,3-dihydro-1H-inden-5-yl]sulfonyl}-1,3-dioxo-2,3-dihydro-1H-indene-2-carboxamide] | 45% | 88% | – | – | 5.71
CC(C)OC(=O)N1CCC[C@H]1C(=O)C1C(=O)c2ccc(C(=O)c3ccc4c(c3)C(=O)C(C(=O)[C@@H]3CCCN3C(=O)OC(C)C)C4=O)cc2C1=O (stereo partly drawn) [Example 134, propan-2-yl (2S)-2-(5-{1,3-dioxo-2-[(2S)-1-[(propan-2-yloxy)carbonyl]pyrrolidine-2-carbonyl]-2,3-dihydro-1H-indene-5-carbonyl}-1,3-dioxo-2,3-dihydro-1H-indene-2-carbonyl)pyrrolidine-1-carboxylate] | – | – | – | – | 5.96
CC(=O)C1(C(=O)OC(C)C)C(=O)c2ccc(Oc3ccc4c(c3)C(=O)CC4=O)cc2C1=O (centres unmarked) [Example 8, ethyl 2-acetyl-5-(1,3-dioxo-indan-5-yloxy)-1,3-dioxo-indan-2-carboxylic acid isopropyl ester] | – | – | – | – | 5.47
N#CC1C(=O)c2ccc(C(=O)c3ccc4c(c3)C(=O)C(C#N)C4=O)cc2C1=O (centres unmarked) [Example 250, 5-(2-cyano-1,3-dioxo-2,3-dihydro-1H-indene-5-carbonyl)-1,3-dioxo-2,3-dihydro-1H-indene-2-carbonitrile] | 26% | 42% | – | – | 5.52
O=C(Nc1ccccc1)C1C(=O)c2ccc(S(=O)(=O)c3ccc4c(c3)C(=O)C(C(=O)Nc3ccccc3)C4=O)cc2C1=O (centres unmarked) [Example 37, 5,5′-sulphonylbis(1,3-dioxo-indan-2-carboxylic acid (phenyl)-amide)] | – | – | – | – | ~6.00
CC(C)(C)OC(=O)N1C[C@@H]2[C@H](C1)[C@H]2C(=O)C1C(=O)c2ccc(C(=O)c3ccc4c(c3)C(=O)C(C(=O)[C@H]3[C@@H]5CN(C(=O)OC(C)(C)C)C[C@@H]53)C4=O)cc2C1=O (some centres unmarked) [Example 121] | – | – | 82% | 80% | 5.46
Cc1ccccc1NC(=O)C1C(=O)c2ccc(S(=O)(=O)c3ccc4c(c3)C(=O)C(C(=O)Nc3ccccc3C)C4=O)cc2C1=O (centres unmarked) [Example 85, N-(2-methylphenyl)-5-({2-[(2-methylphenyl)carbamoyl]-1,3-dioxo-2,3-dihydro-1H-inden-5-yl}sulfonyl)-1,3-dioxo-2,3-dihydro-1H-indene-2-carboxamide] | – | – | – | – | 5.60
CC(C)(C)OC(=O)N1CSC[C@H]1C(=O)C1C(=O)c2ccc(C(=O)c3ccc4c(c3)C(=O)C(C(=O)[C@@H]3CSCN3C(=O)OC(C)(C)C)C4=O)cc2C1=O (stereo partly drawn) [Example 129, tert-butyl (4R)-4-(5-{2-[(4R)-3-[(tert-butoxy)carbonyl]-1,3-thiazolidine-4-carbonyl]-1,3-dioxo-2,3-dihydro-1H-indene-5-carbonyl}-1,3-dioxo-2,3-dihydro-1H-indene-2-carbonyl)-1,3-thiazolidine-3-carboxylate] | – | – | – | – | ~5.70
O=C(NCC1CCS(=O)(=O)C1)C1C(=O)c2ccc(Oc3ccc4c(c3)C(=O)C(C(=O)NCC3CCS(=O)(=O)C3)C4=O)cc2C1=O (centres unmarked) [Example 367, N-[(1,1-dioxo-1λ^6-thiolan-3-yl)methyl]-5-[(2-{[(1,1-dioxo-1λ^6-thiolan-3-yl)methyl]carbamoyl}-1,3-dioxo-2,3-dihydro-1H-inden-5-yl)oxy]-1,3-dioxo-2,3-dihydro-1H-indene-2-carboxamide] | 30% | 77% | – | – | –
C=CCNC(=O)C1C(=O)c2ccc(C(=O)c3ccc4c(c3)C(=O)C(C(=O)NCC=C)C4=O)cc2C1=O (centres unmarked) [Example 65, 5,5′-carbonylbis(n-allyl-1,3-dioxo-2,3-dihydro-1h-indene-2-carboxamide)] | – | – | 50% | 71% | –
CC(C)(C)OC(=O)NCCCC(=O)C1C(=O)c2ccc(C(=O)c3ccc4c(c3)C(=O)C(C(=O)CCCNC(=O)OC(C)(C)C)C4=O)cc2C1=O (centres unmarked) [Example 386, tert-butyl N-(4-{5-[2-(4-{[(tert-butoxy)carbonyl]amino}butanoyl)-1,3-dioxo-2,3-dihydro-1H-indene-5-carbonyl]-1,3-dioxo-2,3-dihydro-1H-inden-2-yl}-4-oxobutyl)carbamate] | 13% | 34% | – | – | –
COCCC(=O)C1C(=O)c2ccc(S(=O)(=O)c3ccc4c(c3)C(=O)C(C(=O)CCOC)C4=O)cc2C1=O (centres unmarked) [Example 177, 2-(3-methoxypropanoyl)-5-{[2-(3-methoxypropanoyl)-1,3-dioxo-2,3-dihydro-1H-inden-5-yl]sulfonyl}-2,3-dihydro-1H-indene-1,3-dione] | – | – | 0% | 17% | –
Cc1ccc(NC(=O)C2C(=O)c3ccc(C(=O)c4ccc5c(c4)C(=O)C(C(=O)Nc4ccc(C)cc4)C5=O)cc3C2=O)cc1 (centres unmarked) [Example 91, N-(4-methylphenyl)-5-{2-[(4-methylphenyl)carbamoyl]-1,3-dioxo-2,3-dihydro-1H-indene-5-carbonyl}-1,3-dioxo-2,3-dihydro-1H-indene-2-carboxamide] | – | – | 20% | 35% | –
COC(=O)[C@H]1CCCCC1C(=O)C1C(=O)c2ccc(C(=O)c3ccc4c(c3)C(=O)C(C(=O)C3CCCC[C@@H]3C(=O)OC)C4=O)cc2C1=O (stereo in doubt) [Example 256, methyl (1S)-2-(5-{2-[(2S)-2-(methoxycarbonyl)cyclohexanecarbonyl]-1,3-dioxo-2,3-dihydro-1H-indene-5-carbonyl}-1,3-dioxo-2,3-dihydro-1H-indene-2-carbonyl)cyclohexane-1-carboxylate] | 13% | 32% | – | – | –

From patent US20250281424A1 (New York Blood Center, Inc, priority 2020, published 2025)
